# Earlier results in US20140045801A1, “PRAMIPEXOLE TRANSDERMAL DELIVERY FOR SEVERE HEADACHES” (MYLAN INC., priority 2012, published 2014).
# Conditions: free base; moderate lipophilicity
smiles,measurement,value
"CCCN[C@H]1CCc2nc(N)sc2C1 [Pramipexole free base, Pramipexole]",log P,2.35
